# PubChem BioAssay (NCI)
#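 Interpolation was linear, between the two tested concentrations surrounding the appropriate level; five concentrations were tested over 48 hours in 96-well plates. TGI: concentration producing complete growth inhibition.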
# Key:
# Test in all cases: inhibition of tumour cell growth, NCI panel, 48 h
# COLO 205 colon = system: COLO 205 colon
# EKVX NSCLC = system: EKVX NSCLC
# K-562 leukemia = system: K-562 leukemia
# ACHN renal = system: ACHN renal
# OVCAR-5 ovarian = system: OVCAR-5 ovarian
# OVCAR-4 ovarian = system: OVCAR-4 ovarian
# MDA-N = system: MDA-N
# RPMI-8226 leukemia = system: RPMI-8226 leukemia
# CCRF-CEM leukemia = system: CCRF-CEM leukemia
# 786-0 renal = system: 786-0 renal
# SF-539 CNS = system: SF-539 CNS
SMILES,TGI (COLO 205 colon),TGI (EKVX NSCLC),TGI (K-562 leukemia),TGI (ACHN renal),TGI (OVCAR-5 ovarian),TGI (OVCAR-4 ovarian),TGI (MDA-N),TGI (RPMI-8226 leukemia),TGI (CCRF-CEM leukemia),TGI (786-0 renal),TGI (SF-539 CNS)
CSC1=N/C(=C\c2ccc(C)cc2)C(=O)N1CN1CCOCC1,> 100 µM,> 100 µM,> 100 µM,> 100 µM,> 100 µM,32.9 µM,> 100 µM,> 100 µM,> 100 µM,> 100 µM,–
CN(C)CCCNc1c(O)c2c(c(O)c1Cl)C(=O)C=CC2=O,3.07 µM,> 10 µM,> 10 µM,> 10 µM,3 µM,2.82 µM,6.38 µM,–,5.7 µM,3.25 µM,3.22 µM
CC(C)(C)OC(=O)[N+](=N)C(=O)C1CCC(=O)N1C(=O)OCc1ccccc1 (centres undefined),> 100 µM,> 100 µM,> 100 µM,> 100 µM,> 100 µM,> 100 µM,> 100 µM,> 100 µM,> 100 µM,> 100 µM,–
CCCCCCCCC[C@@H]1C[C@@H]2CCC3C(C(=O)OC)=C(C)NC(=N1)N32 (some centres undefined),15.1 µM,26.8 µM,72.2 µM,32.1 µM,35.6 µM,25.4 µM,–,> 100 µM,> 100 µM,18.9 µM,12.2 µM
Cc1ccc2c(c1)SSSSS2,97.9 µM,65.1 µM,> 100 µM,34.9 µM,46.9 µM,37.2 µM,87.1 µM,–,17 µM,37.2 µM,–
S=c1[nH]nc(COc2ccc3c(c2)CCCC3)n1/N=C/c1ccc(Cl)cc1,31.2 µM,34.6 µM,50.2 µM,36 µM,32 µM,32.8 µM,33.5 µM,36.1 µM,55.8 µM,–,32.8 µM
CC(=O)N=C(N=Nc1c(O)[nH]c2ccc(C)cc12)NC(C)=O,> 100 µM,> 100 µM,> 100 µM,> 100 µM,> 100 µM,> 100 µM,> 100 µM,> 100 µM,> 100 µM,> 100 µM,–
NC(=O)NC(=O)c1cnccn1,–,> 100 µM,> 100 µM,> 100 µM,> 100 µM,> 100 µM,> 100 µM,> 100 µM,> 100 µM,> 100 µM,> 100 µM
COc1c(CC=C(C)C)c(O)c(C(CC(C)C)c2c(O)c(C(C)=O)c(O)c3c2OC(C(C)(C)O)C3)c(O)c1C(C)=O (centres undefined),> 12.5 µM,11.6 µM,> 12.5 µM,> 12.5 µM,> 12.5 µM,> 12.5 µM,> 12.5 µM,–,> 12.5 µM,> 12.5 µM,> 12.5 µM
CN(C1=NCCO1)c1cccc2ccccc12,> 10 µM,> 10 µM,> 10 µM,> 10 µM,> 10 µM,> 10 µM,> 10 µM,> 10 µM,> 10 µM,–,> 10 µM
CC(=O)/C(C=Nc1c(C)n(C)n(-c2ccccc2)c1=O)=C(/C)O,> 100 µM,> 100 µM,> 100 µM,> 100 µM,> 100 µM,> 100 µM,–,> 100 µM,> 100 µM,> 100 µM,> 100 µM
